Measurements from PubChem BioAssay (NCI).
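Five compound concentrations were applied to cells in 96-well plates for 48 hours; endpoints were derived by simple linear interpolation of the resulting dose-response curve. TGI: total growth inhibition.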

What was measured:
Experiment in all cases: NCI anticancer screen, dose series, 48 h
MDA-N = test system: MDA-N
MDA-MB-231 breast = test system: MDA-MB-231 breast
OVCAR-3 ovarian = test system: OVCAR-3 ovarian
PC-3 prostate = test system: PC-3 prostate
BT-549 breast = test system: BT-549 breast
MDA-MB-435 = test system: MDA-MB-435
CCRF-CEM leukemia = test system: CCRF-CEM leukemia
A498 renal = test system: A498 renal
RPMI-8226 leukemia = test system: RPMI-8226 leukemia
UACC-257 melanoma = test system: UACC-257 melanoma
SW-620 colon = test system: SW-620 colon
OVCAR-4 ovarian = test system: OVCAR-4 ovarian
CAKI-1 renal = test system: CAKI-1 renal
MCF7 breast = test system: MCF7 breast
SNB-19 CNS = test system: SNB-19 CNS
MOLT-4 leukemia = test system: MOLT-4 leukemia
UACC-62 melanoma = test system: UACC-62 melanoma
NCI-H226 lung = test system: NCI-H226 lung
HT29 colon = test system: HT29 colon
DU-145 prostate = test system: DU-145 prostate
SK-OV-3 ovarian = test system: SK-OV-3 ovarian
NCI/ADR-RES ovarian = test system: NCI/ADR-RES ovarian
SF-268 CNS = test system: SF-268 CNS
A549 NSCLC = test system: A549 NSCLC
OVCAR-8 ovarian = test system: OVCAR-8 ovarian
OVCAR-5 ovarian = test system: OVCAR-5 ovarian
SNB-75 CNS = test system: SNB-75 CNS
EKVX NSCLC = test system: EKVX NSCLC
M14 melanoma = test system: M14 melanoma
NCI-H460 lung = test system: NCI-H460 lung
SK-MEL-28 melanoma = test system: SK-MEL-28 melanoma
U251 CNS = test system: U251 CNS
HS 578T breast = test system: HS 578T breast
HCT-15 colon = test system: HCT-15 colon
SF-539 CNS = test system: SF-539 CNS
HOP-62 NSCLC = test system: HOP-62 NSCLC
HOP-92 NSCLC = test system: HOP-92 NSCLC
SK-MEL-2 melanoma = test system: SK-MEL-2 melanoma
TK-10 renal = test system: TK-10 renal
SN12C renal = test system: SN12C renal
HCT-116 colon = test system: HCT-116 colon
KM12 colon = test system: KM12 colon
RXF 393 renal = test system: RXF 393 renal
NCI-H23 lung = test system: NCI-H23 lung
HCC-2998 colon = test system: HCC-2998 colon
ACHN renal = test system: ACHN renal
IGROV1 ovarian = test system: IGROV1 ovarian
SR leukemia = test system: SR leukemia
SK-MEL-5 melanoma = test system: SK-MEL-5 melanoma
UO-31 renal = test system: UO-31 renal
LOX IMVI melanoma = test system: LOX IMVI melanoma
SF-295 CNS = test system: SF-295 CNS
786-0 renal = test system: 786-0 renal
K-562 leukemia = test system: K-562 leukemia
COLO 205 colon = test system: COLO 205 colon
NCI-H522 lung = test system: NCI-H522 lung
MALME-3M melanoma = test system: MALME-3M melanoma

SMILES: O=C1c2cccc3cc([N+](=O)[O-])cc(c23)C(=O)N1CCCN1CCN(CCCNc2ccc3ncn4c5ccccc5c(=O)c2c34)CC1
- TGI (MDA-N): 0.579 µM
- TGI (MDA-MB-231 breast): 0.62 µM
- TGI (OVCAR-3 ovarian): > 17.2 µM
- TGI (PC-3 prostate): > 17.1 µM
- TGI (BT-549 breast): 0.0361 µM
- TGI (MDA-MB-435): > 50 µM
- TGI (CCRF-CEM leukemia): 5 µM
- TGI (A498 renal): 5.67 µM
- TGI (RPMI-8226 leukemia): > 50 µM
- TGI (UACC-257 melanoma): > 50 µM
- TGI (SW-620 colon): > 50 µM
- TGI (OVCAR-4 ovarian): > 50 µM
- TGI (CAKI-1 renal): 0.00674 µM
- TGI (MCF7 breast): < 0.005 µM
- TGI (SNB-19 CNS): > 50 µM
- TGI (MOLT-4 leukemia): > 50 µM
- TGI (UACC-62 melanoma): > 50 µM
- TGI (NCI-H226 lung): < 0.005 µM
- TGI (HT29 colon): < 0.005 µM
- TGI (DU-145 prostate): > 19.9 µM
- TGI (SK-OV-3 ovarian): > 20 µM
- TGI (NCI/ADR-RES ovarian): 0.0864 µM
- TGI (SF-268 CNS): 16.1 µM
- TGI (A549 NSCLC): > 50 µM
- TGI (OVCAR-8 ovarian): 0.173 µM
- TGI (OVCAR-5 ovarian): > 16.9 µM
- TGI (SNB-75 CNS): 0.187 µM
- TGI (EKVX NSCLC): > 50 µM
- TGI (M14 melanoma): 0.0785 µM
- TGI (NCI-H460 lung): > 50 µM
- TGI (SK-MEL-28 melanoma): > 25.5 µM
- TGI (U251 CNS): 0.00861 µM
- TGI (HS 578T breast): 8.75 µM
- TGI (HCT-15 colon): > 50 µM
- TGI (SF-539 CNS): 0.0871 µM
- TGI (HOP-62 NSCLC): 1.74 µM
- TGI (HOP-92 NSCLC): > 50 µM
- TGI (SK-MEL-2 melanoma): > 29 µM

SMILES: Cn1ccnc1CC(C)(O)c1ccccc1 (stereo not drawn)
- TGI (MDA-N): > 100 µM
- TGI (TK-10 renal): > 100 µM
- TGI (SN12C renal): > 100 µM
- TGI (MDA-MB-231 breast): > 100 µM
- TGI (OVCAR-3 ovarian): > 100 µM
- TGI (PC-3 prostate): > 100 µM
- TGI (HCT-116 colon): > 100 µM
- TGI (BT-549 breast): > 100 µM
- TGI (MDA-MB-435): > 100 µM
- TGI (A498 renal): > 100 µM
- TGI (RPMI-8226 leukemia): > 100 µM
- TGI (UACC-257 melanoma): > 100 µM
- TGI (KM12 colon): > 100 µM
- TGI (RXF 393 renal): > 100 µM
- TGI (NCI-H23 lung): > 100 µM
- TGI (HCC-2998 colon): > 100 µM
- TGI (SW-620 colon): > 100 µM
- TGI (OVCAR-4 ovarian): > 100 µM
- TGI (CAKI-1 renal): > 100 µM
- TGI (ACHN renal): > 100 µM
- TGI (MCF7 breast): > 100 µM
- TGI (SNB-19 CNS): > 100 µM
- TGI (IGROV1 ovarian): > 100 µM
- TGI (SR leukemia): > 100 µM
- TGI (UACC-62 melanoma): > 100 µM
- TGI (NCI-H226 lung): > 100 µM
- TGI (HT29 colon): > 100 µM
- TGI (DU-145 prostate): > 100 µM
- TGI (SK-MEL-5 melanoma): > 100 µM
- TGI (SK-OV-3 ovarian): > 100 µM
- TGI (NCI/ADR-RES ovarian): > 100 µM
- TGI (UO-31 renal): > 100 µM
- TGI (SF-268 CNS): > 100 µM
- TGI (A549 NSCLC): > 100 µM
- TGI (OVCAR-8 ovarian): > 100 µM
- TGI (LOX IMVI melanoma): > 100 µM
- TGI (SF-295 CNS): > 100 µM
- TGI (786-0 renal): > 100 µM
- TGI (OVCAR-5 ovarian): > 100 µM
- TGI (SNB-75 CNS): > 100 µM
- TGI (K-562 leukemia): > 100 µM
- TGI (COLO 205 colon): > 100 µM
- TGI (NCI-H522 lung): > 100 µM
- TGI (EKVX NSCLC): > 100 µM
- TGI (M14 melanoma): > 100 µM
- TGI (NCI-H460 lung): > 100 µM
- TGI (SK-MEL-28 melanoma): > 100 µM
- TGI (U251 CNS): > 100 µM
- TGI (HS 578T breast): > 100 µM
- TGI (HCT-15 colon): > 100 µM
- TGI (SF-539 CNS): > 100 µM
- TGI (MALME-3M melanoma): > 100 µM
- TGI (HOP-62 NSCLC): > 100 µM
- TGI (HOP-92 NSCLC): > 100 µM
- TGI (SK-MEL-2 melanoma): > 100 µM
